Measured values: patent US6759238B1, “Multidrug resistance associated proteins and uses thereof” (priority 1999, dated 2004)
Several values for one entry are separate records, joined by “and”; a condition that tells them apart may be missing. Equal values may be shown once. Read-outs that look alike come from different tables or passages of the source.

Tests used:
CEM-SS cells [1] = assay: Phosphorylation of AZT; type: in vitro ADME, human; conditions: 10 μM AZT
Procedure: (§1) The appearance of the phosphorylated metabolites into the medium was also determined in both the cell lines. AZTDP and AZTTP were not detected in the medium of either CEM-SS or CEM-r1 cells. However, the amount of AZTMP accumulated in the media was approximately 3-fold higher in CEM-r1 cells than in CEM-SS cells.
(§2) The cartridges were conditioned with 10% MeOH Ammonium Phosphate Buffer (5 mM, pH 4.0). The sample was loaded onto the column. […] AZTDP and AZTTP were eluted with 10% MeOH Ammonium Phosphate Buffer (700 mm, pH 4.6).

CEM-r1 cells [2] = assay: Phosphorylation of AZT; type: in vitro ADME, human; conditions: for Extracellular Concentration / Intracellular Concentration: CEM-r1, 10 μM AZT
Procedure: as §1, §2

[3] = Efflux of [3H]-AZT and its metabolites; type: in vitro ADME, human; set-up: half-life: dose or concentration left out as unconfirmed; conditions: human, CEMss, read-out: Efflux kinetics, AZTMP t½
Procedure: (§3) Cells were incubated for 60 minutes with [^3H]-AZT (10 μM) after which they were washed free of radioactivity, resuspended in drug-free medium and the intracellular and the extracellular concentration of [^3H]-AZT were measured. […] At least 80% of the AZTMP present intracellularly in CEM-r1 cells was excreted into the medium in 10 minutes (FIG. 6A).
(§4) Referring to Table 6 in greater detail, efflux kinetics were studied. Transport analysis of PMEA was conducted as previously described^48. […] The cells were then washed free of radioactivity and then incubated in drug-free medium in the presence of sodium azide and 2-deoxy-D-glucose. At various time periods, the amount of intracellular AZTMP was measured. As reported in Table 6, depletion of ATP led to an inhibition of AZTMP efflux (i.e. a significant accumulation of AZTMP in the CEM-r1 cells but not in the CEM-SS cells).
(§5) The suspension was centrifuged at 3,300 rpm for 7 minutes. All but 1 ml of the supernatant medium containing the free drug was aspirated. […] The cell pellet was then washed with ice-cold medium and resuspended at the same concentration in drug-free medium and maintained at 37° C. […] An aliquot of the top layer (cell free media) was analyzed for the quantitation of AZT and its metabolites.

CEM-SS cells [4] = assay: Efflux of [3H]-AZT and its metabolites; type: in vitro ADME, human; set-up: half-life: dose or concentration left out as unconfirmed; conditions: CEMss, no treatment, after loading with [3H]-AZT
Procedure: as §3, §4, §5

[5] = Efflux of [3H]-AZT and its metabolites; type: in vitro ADME, human; conditions: human, read-out: Efflux kinetics, AZTMP t½
Procedure: as §3, §4, §5

CEM-r1 cells [6] = assay: Efflux of [3H]-AZT and its metabolites; type: in vitro ADME, human
Procedure: as §3, §4, §5

[7] = test system: AZTMP efflux in CEM-SS cells; assay: Effect of inhibitors of ATP-coupled transporters on AZTMP efflux; type: cell-based, human; conditions: PGA1 50 μM, DPM 10 μM
Procedure: (§6) The suspension was centrifuged at 3,300 rpm for 7 minutes. All but 1 ml of the supernatant medium containing the free drug was aspirated. […] The cell pellet was then washed with ice-cold medium and resuspended at the same concentration in drug-free medium and maintained at 37° C.

[8] = test system: AZTMP efflux in CEM-r1 cells; assay: as above; type: cell-based, human; conditions: PGA1 50 μM, DPM 10 μM
Procedure: as §6

[9] = CEMr-1, no treatment, after loading with [3H]-AZT

**Q.** Which “Extracellular Concentration” value (CEM-SS cells [1]; 4 hours) does the source give for `Cc1cn([C@H]2C[C@H](N=[N+]=[N-])[C@@H](COP(=O)(O)O)O2)c(=O)[nH]c1=O` [AZTMP, azido-thymidine monophosphate] here?
**A.** 46 nM

**Q.** And the “Intracellular Concentration” value (CEM-SS cells [1]; 4 hours)?
**A.** 89 µM

**Q.** What about the “Extracellular Concentration” value (CEM-SS cells [1]; 8 hours) of the same compound?
**A.** 151 nM

**Q.** And the “Intracellular Concentration” value (CEM-SS cells [1]; 8 hours)?
**A.** 95 µM

**Q.** What about the “Extracellular Concentration” value (CEM-SS cells [1]; 24 hours) of the same compound?
**A.** 555 nM

**Q.** And the “Intracellular Concentration” value (CEM-SS cells [1]; 24 hours)?
**A.** 50 µM

**Q.** What about the “Amount accumulated in the media, CEM-r1 vs CEM-SS” value (CEM-r1 cells [2]; 10 μM AZT) of the same compound?
**A.** approximately 3 fold

**Q.** What about the “Extracellular Concentration” value (CEM-r1 cells [2]; 4 hours) of the same compound?
**A.** 132 nM

**Q.** And the “Intracellular Concentration” value (CEM-r1 cells [2]; 4 hours)?
**A.** 13.6 µM

**Q.** What about the “Extracellular Concentration” value (CEM-r1 cells [2]; 8 hours) of the same compound?
**A.** 420 nM

**Q.** And the “Intracellular Concentration” value (CEM-r1 cells [2]; 8 hours)?
**A.** 15.9 µM

**Q.** What about the “Extracellular Concentration” value (CEM-r1 cells [2]; 24 hours) of the same compound?
**A.** 1716 nM

**Q.** What about the “Intracellular Concentration” value (CEM-r1 cells [2]; 24 hours) of the same compound?
**A.** 12.3 µM

**Q.** And the half-life at 10 μM ([3]; Azide + Deoxyglucose)?
**A.** 16.3 min

**Q.** And the half-life ([3]; no treatment, after loading with [3H]-AZT)?
**A.** 17.5 min

**Q.** What about the “Efflux kinetics, AZTMP t½” value (CEM-SS cells [4]) of the same compound?
**A.** 17.1 min

**Q.** And the half-life at 10 μM ([5]; CEMr-1, Azide + Deoxyglucose)?
**A.** 18.1 min

**Q.** What about the half-life at 10 μM [5, 9] of the same compound?
**A.** 4.5 min

**Q.** What about the “Intracellular AZTMP excreted into the medium” value (CEM-r1 cells [6]; CEM-r1, in 10 minutes) of the same compound?
**A.** At least 80%

**Q.** What about the “Efflux kinetics, AZTMP t½” value (CEM-r1 cells [6]; [9]) of the same compound?
**A.** 4 min and 4.3 min

**Q.** Which results are given for `CCCCC[C@H](O)/C=C/[C@H]1C=CC(=O)[C@@H]1CCCCCCC(=O)O` [PGA1, prostaglandin A1]?
**A.** Effect on efflux of AZTMP [7]: no effect; Effect on efflux of AZTMP [8]: markedly inhibited
